Experimental findings from ChEMBL document CHEMBL1201862, “PubChem BioAssay data set” (2004) are described below.

Active and inactive are the calls of the source. Some results are limits rather than exact numbers.

For orientation: AC50 means the concentration giving half of the maximal activity seen. One may read the EC50 as the concentration that produces a half-maximal response.

One assay has as its target T1, Cysteine protease ATG4B (Homo sapiens, UniProt Q9Y4P1).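 Note: Fluorescence-based dose-response confirmation assay measuring inhibition of ATG4B activity.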
T1 sequence (Q9Y4P1 whole entry): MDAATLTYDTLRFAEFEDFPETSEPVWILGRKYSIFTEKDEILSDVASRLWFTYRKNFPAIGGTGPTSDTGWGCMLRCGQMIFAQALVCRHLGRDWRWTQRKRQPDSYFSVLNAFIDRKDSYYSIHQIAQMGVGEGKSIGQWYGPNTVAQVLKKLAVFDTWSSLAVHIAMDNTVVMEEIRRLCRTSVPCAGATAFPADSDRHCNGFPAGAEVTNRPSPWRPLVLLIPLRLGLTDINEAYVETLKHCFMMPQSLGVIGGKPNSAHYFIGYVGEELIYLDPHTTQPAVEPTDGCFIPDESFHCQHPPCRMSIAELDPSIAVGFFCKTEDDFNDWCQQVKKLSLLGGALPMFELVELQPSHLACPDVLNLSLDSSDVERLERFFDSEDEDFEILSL
The assay is classed as functional.

For a further assay, the target named is Phospholipase A2 (Homo sapiens, UniProt P04054). In kind it is functional.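 Note: confirmatory dose-response counterscreen on phospholipase A2, testing hits that came from an ultra-high-throughput screen for ATG4B inhibitors.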
Phospholipase A2, sequence (P04054 whole entry): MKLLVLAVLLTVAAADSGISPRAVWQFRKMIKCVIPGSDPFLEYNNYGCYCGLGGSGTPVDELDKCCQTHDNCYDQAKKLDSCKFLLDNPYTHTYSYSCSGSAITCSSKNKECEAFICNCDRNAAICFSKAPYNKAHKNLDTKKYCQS
Assay [1] deals with T2, Sentrin-specific protease 7 (Homo sapiens, UniProt Q9BQF6).
T2 sequence (Q9BQF6 whole entry): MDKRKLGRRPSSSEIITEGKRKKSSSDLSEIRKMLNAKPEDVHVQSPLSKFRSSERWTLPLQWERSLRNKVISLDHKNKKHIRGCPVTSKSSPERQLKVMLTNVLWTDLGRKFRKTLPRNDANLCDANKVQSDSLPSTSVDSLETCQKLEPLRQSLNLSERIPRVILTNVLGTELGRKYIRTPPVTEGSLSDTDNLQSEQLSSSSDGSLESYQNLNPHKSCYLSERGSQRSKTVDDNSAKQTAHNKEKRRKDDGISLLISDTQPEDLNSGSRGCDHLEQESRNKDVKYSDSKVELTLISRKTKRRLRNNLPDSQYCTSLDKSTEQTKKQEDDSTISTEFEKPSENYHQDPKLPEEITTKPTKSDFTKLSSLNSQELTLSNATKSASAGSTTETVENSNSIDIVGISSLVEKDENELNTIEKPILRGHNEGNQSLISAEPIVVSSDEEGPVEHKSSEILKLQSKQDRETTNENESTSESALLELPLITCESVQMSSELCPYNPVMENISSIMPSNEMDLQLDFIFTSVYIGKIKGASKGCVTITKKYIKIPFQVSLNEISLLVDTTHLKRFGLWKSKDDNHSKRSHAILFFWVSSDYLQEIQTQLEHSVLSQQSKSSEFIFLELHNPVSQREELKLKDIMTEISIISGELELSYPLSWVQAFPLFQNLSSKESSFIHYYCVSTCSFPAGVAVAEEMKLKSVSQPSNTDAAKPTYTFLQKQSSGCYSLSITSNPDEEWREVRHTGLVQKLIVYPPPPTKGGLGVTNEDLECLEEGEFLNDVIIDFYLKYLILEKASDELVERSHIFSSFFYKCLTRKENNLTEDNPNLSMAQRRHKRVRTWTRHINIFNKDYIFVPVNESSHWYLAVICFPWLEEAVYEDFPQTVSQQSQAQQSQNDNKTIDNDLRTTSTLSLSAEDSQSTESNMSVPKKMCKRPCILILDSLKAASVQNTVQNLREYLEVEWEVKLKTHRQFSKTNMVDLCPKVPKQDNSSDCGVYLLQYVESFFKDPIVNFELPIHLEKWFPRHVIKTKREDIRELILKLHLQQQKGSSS
In kind it is functional.

Assay [2] concerns the target T3, Sentrin-specific protease 6 (Homo sapiens, UniProt Q9GZR1).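 Note: Luminescence-based dose-response confirmatory assay of SENP6 inhibition, following up an ultra-high-throughput screen.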
T3 sequence (Q9GZR1 whole entry): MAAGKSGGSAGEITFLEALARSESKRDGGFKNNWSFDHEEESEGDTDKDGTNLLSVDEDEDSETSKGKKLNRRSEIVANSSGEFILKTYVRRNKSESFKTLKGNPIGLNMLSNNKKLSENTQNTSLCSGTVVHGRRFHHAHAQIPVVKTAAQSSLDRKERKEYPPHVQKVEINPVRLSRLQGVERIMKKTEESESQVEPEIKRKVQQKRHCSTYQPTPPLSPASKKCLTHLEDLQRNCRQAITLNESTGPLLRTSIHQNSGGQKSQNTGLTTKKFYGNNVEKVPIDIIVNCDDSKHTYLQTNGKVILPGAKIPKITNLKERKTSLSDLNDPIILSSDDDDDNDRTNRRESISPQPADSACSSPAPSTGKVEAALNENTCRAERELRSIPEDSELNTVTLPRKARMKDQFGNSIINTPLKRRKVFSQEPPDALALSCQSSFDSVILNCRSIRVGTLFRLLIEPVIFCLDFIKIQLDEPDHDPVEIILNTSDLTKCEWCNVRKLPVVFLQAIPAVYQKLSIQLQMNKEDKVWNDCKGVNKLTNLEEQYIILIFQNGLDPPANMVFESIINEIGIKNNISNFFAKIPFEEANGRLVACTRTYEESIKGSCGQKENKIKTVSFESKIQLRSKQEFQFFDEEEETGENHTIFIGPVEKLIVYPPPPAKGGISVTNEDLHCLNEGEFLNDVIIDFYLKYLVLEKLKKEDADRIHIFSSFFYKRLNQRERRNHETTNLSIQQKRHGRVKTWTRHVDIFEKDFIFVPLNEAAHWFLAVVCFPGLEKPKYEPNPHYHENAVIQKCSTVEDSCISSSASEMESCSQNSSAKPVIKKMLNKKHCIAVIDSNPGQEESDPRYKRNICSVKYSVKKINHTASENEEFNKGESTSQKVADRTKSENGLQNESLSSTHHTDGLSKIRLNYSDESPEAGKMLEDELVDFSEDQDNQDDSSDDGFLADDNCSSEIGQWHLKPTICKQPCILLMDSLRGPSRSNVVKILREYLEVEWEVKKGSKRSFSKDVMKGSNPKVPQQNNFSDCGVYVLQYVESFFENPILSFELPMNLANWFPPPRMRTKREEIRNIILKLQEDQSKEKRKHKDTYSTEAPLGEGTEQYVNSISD
In kind it is functional.

The nature of assay [3]: Luminescence Cell-Based Dose Retest to Confirm Inhibitors of Cancer Stem Cells. [Related pubchem assays (depositor defined):AID2717, AID2721]. In kind it is functional. The settings on record: Homo sapiens.
For assay [4], the target named is T4, Sentrin-specific protease 8 (Homo sapiens, UniProt Q96LD8).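 Note: luminescence read-out of SENP8 inhibition, dose-response confirmation following an ultra-high-throughput screen.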
T4 sequence (Q96LD8 whole entry): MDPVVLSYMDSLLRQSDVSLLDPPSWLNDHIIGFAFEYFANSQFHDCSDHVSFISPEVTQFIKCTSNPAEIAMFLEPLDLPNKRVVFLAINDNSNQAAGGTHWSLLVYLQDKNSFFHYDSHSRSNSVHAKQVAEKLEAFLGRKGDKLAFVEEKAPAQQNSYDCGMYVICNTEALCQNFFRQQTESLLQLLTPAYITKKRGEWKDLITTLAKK
The assay is classed as functional.

In the next assay the target is T5, Caspase-3 (Homo sapiens, UniProt P42574).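 Note: Dose-response selectivity test against caspase-3 for candidate inhibitors of sentrin-specific proteases (SENPs).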
T5 sequence (P42574 whole entry): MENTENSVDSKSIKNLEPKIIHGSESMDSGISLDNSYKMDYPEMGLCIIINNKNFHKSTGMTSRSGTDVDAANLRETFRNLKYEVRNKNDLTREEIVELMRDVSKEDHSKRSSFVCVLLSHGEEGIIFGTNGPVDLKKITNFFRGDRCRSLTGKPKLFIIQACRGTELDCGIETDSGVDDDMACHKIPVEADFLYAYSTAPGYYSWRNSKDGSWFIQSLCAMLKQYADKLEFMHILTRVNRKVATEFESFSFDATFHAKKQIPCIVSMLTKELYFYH
The assay is classed as functional.

In assay [5] the target is Heat shock protein HSP 90-alpha (Homo sapiens, UniProt P07900). The assay is classed as functional, organism-based.
For another assay, the system named is H4. Kind of assay: Luminescence Cell-Based Dose Response HTS to Identify Activators of 5'UTR Stem-Loop Driven Prion Protein mRNA Translation in H4 Neuroglioblastoma Cells. [Related pubchem assays: 1829 (Project Summary), 1814 (Primary HTS)]. In kind it is functional. The conditions noted are these: Homo sapiens.
Assay [6] in a line: Luminescence Cell-Based Dose Response HTS to Identify Activators of Luciferase Translation or Activity in H4 […] Cells. [Related pubchem assays: 1829 (Project Summary), 1814 (Primary HTS)]. The assay is classed as functional.
Assay [7] in a line: Luminescence Cell-Based Dose Confirmation HTS to Identify Activators of 5'UTR Stem-Loop Driven Alpha-Synuclein mRNA Translation in H4 Neuroglioblastoma Cells. [Related pubchem assays: 1829 (Project Summary), 1814 (Primary HTS)]. In kind it is functional.
For assay [8], the target named is T6, Rac GTPase-activating protein 1 (Homo sapiens, UniProt Q9H0H5).
T6 sequence (Q9H0H5 whole entry): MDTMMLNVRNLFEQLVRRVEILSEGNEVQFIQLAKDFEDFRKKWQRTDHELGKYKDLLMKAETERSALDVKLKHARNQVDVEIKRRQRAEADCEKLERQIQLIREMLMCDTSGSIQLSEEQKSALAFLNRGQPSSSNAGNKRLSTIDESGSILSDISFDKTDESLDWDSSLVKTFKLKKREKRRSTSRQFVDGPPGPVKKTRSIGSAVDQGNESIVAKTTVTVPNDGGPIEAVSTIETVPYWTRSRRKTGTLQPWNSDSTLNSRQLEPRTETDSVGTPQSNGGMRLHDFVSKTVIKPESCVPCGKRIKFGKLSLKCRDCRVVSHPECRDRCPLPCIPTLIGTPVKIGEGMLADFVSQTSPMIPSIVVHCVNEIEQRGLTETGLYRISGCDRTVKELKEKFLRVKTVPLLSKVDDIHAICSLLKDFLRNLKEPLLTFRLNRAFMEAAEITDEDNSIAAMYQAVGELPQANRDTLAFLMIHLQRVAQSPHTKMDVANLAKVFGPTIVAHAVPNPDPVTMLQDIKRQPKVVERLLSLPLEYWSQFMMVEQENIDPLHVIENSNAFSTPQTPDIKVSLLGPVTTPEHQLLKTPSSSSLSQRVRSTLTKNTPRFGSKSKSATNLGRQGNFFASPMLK
Briefly: MgcRacGAP GTPase-activating activity inhibitors, confirmation, biochemical, ADP Hunter fluorescence, primary and confirmatory (AID 624330). In kind it is functional.

In the next assay the target is Protein Wnt-3a (Mus musculus, UniProt P27467). Kind of assay: Wnt3a-driven reporter signaling inhibition, dose response, selectivity assay for Gli-SUFU antagonist project, Wnt-LIGHT cells, luminescence (AID 651570).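 Note: Wnt-LIGHT reporter cells stimulated with conditioned medium from Wnt3a-producing cells.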 The assay is classed as functional. The conditions noted are these: read-out: IC50_Mean.
Protein Wnt-3a, sequence (P27467 whole entry): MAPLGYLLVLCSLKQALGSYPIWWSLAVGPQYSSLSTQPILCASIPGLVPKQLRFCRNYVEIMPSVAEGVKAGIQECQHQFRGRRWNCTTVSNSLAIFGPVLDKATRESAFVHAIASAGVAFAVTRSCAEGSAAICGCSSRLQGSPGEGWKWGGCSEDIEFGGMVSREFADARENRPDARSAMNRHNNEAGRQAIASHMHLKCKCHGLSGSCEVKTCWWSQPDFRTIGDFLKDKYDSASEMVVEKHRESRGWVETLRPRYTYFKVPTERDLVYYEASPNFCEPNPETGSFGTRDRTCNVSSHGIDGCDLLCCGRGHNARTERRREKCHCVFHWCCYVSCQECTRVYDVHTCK
The target of assay [9] is T7, Heat shock factor protein 1 (Mus musculus, UniProt P38532).
T7 sequence (P38532 whole entry): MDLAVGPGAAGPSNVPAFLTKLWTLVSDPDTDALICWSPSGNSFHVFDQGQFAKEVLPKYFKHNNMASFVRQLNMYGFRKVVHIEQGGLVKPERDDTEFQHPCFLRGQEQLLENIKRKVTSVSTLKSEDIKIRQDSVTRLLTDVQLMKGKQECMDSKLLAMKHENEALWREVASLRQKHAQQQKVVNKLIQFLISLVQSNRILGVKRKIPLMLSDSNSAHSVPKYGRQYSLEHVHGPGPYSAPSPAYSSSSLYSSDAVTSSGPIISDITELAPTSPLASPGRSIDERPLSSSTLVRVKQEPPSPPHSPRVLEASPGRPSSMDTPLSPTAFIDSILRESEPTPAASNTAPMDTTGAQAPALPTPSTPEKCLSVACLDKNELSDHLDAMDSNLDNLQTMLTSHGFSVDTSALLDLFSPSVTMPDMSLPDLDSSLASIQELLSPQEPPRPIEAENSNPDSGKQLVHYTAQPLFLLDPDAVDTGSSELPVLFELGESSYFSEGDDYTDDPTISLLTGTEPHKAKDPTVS
Briefly: inhibition of MG132-induced HSE-luciferase signal, confirmation, cell-based, NIH3T3, luminescence, dose retest (AID 2382).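 Note: NIH3T3 fibroblasts with HSF1-driven luciferase reporter stressed by proteasome inhibitor MG132; luminescence from HSF1-driven luciferase expression after 8 hours of MG132 stress.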 In kind it is functional.

As to `O=C(O)c1cccc(CSc2nc(-c3ccc(Cl)cc3)cc(C(F)(F)F)n2)c1`, the figures for the IC50 on Cysteine protease ATG4B and at Phospholipase A2 were 12.8 µM (active) and 11.4 µM (active), respectively.
`Cc1ccc(C(=O)Nc2nc(C)c(C(=O)Nc3ccc4c(c3)CCC4)s2)cc1`: the IC50 was 8.21 µM (active) in [1], > 100 µM (inactive) in [2], > 100 µM (inactive) in [4] and 19.8 µM (active) on Caspase-3. The AC50 in assay [3] was 0.458 µM (active).
Consider `O=C(Cn1cccc1C(=O)c1ccccc1)NCCC1=CCCCC1`, for which the IC50 at Cysteine protease ATG4B is 20.1 µM (inactive); on Phospholipase A2 it was 11.7 µM (active).
For the molecule `COc1ccc2c(c1)CCc1c(C(=O)N3CCc4ccccc4C3)noc1-2`, the concentration at half-maximal activity (AC50) in assay [5] was 6.29 µM (active).
For the molecule `O=C(NC(=S)NCCC1=CCCCC1)c1ccc(Br)o1`, the 50% effective concentration (EC50) with H4 is 18.1 µM (active); in assay [6] it was 15.1 µM (active); in assay [7], 83 µM (active). For the same molecule, the IC50 is 15.9 µM (active) at Cysteine protease ATG4B and 9.44 µM (active) on Phospholipase A2.
On to `O=C1C=CC(=O)N1c1ccc(Nc2ccccc2)cc1`, for which, in [8], the IC50 was 27 µM (active). Further, in assay [5], the AC50 is 1.85 µM (active).
With `O=C(N/N=C/c1cccc(Oc2ccccc2)c1)c1cccc(O)c1`, the IC50 in assay [1] was 10.7 µM (active); in assay [2] it was 25.7 µM (active); in assay [4], 24 µM (active); at Caspase-3 it was 31.2 µM (active).
With `CN1/C(=C\C=N\c2ccccc2)C(C)(C)c2ccccc21`, the IC50 on Protein Wnt-3a is 7.05 µM (active).
Regarding `COc1ccc(/C=N/Nc2nncc3ccccc23)c(OC)c1`, the IC50 in assay [1] was 3.46 µM (active); in assay [2], 11.1 µM (active); in assay [4], 44.8 µM (active); on Caspase-3, 7.23 µM (active).
With `O=C(NCCNc1ccnc2cc(Cl)ccc12)c1ccccc1F`, in [9], the EC50 is 39.7 µM (active). For the same molecule, the IC50 at Protein Wnt-3a is 3.93 µM (active).
